In the NIST ThermoML archive (doi:10.1021/je4004977):
± gives the expanded uncertainty stated by the source.

Settings: for viscosity / mass density: 101.33 kPa; for viscosity / mass density / vapor or sublimation pressure: Liquid; for viscosity: Capillary tube (Ostwald / Ubbelohde) method; for surface tension liquid-gas: Drop volume; for mass density: Pycnometric method; for vapor or sublimation pressure: Closed cell (Static) method

`CC(O)COC(C)COC(C)COC(C)CO` (stereo not drawn) [2-[2-[2-(2-hydroxypropoxy)propoxy]propoxy]-1-propanol] gave a viscosity (288.15 K) of 105.44 ± 1.4 mPa·s, a viscosity (293.15 K) of 67.81 ± 0.43 mPa·s and a surface tension liquid-gas (298.15 K) of 34.3 ± 0.2 mN/m. It also gave a mass density (298.15 K) of 1019.6 ± 0.3 kg/m3, a viscosity (299.15 K) of 44.89 ± 0.24 mPa·s and a viscosity (303.15 K) of 35.66 ± 0.2 mPa·s. For the same compound, the surface tension liquid-gas (308.15 K) was 33.4 ± 0.2 mN/m, the viscosity (308.15 K) was 27.85 ± 0.17 mPa·s and the mass density (308.15 K) was 1013.7 ± 0.3 kg/m3. The viscosity (313.15 K) was 22.48 ± 0.15 mPa·s, the surface tension liquid-gas (318.15 K) was 32.6 ± 0.2 mN/m and the viscosity (318.15 K) was 17.97 ± 0.13 mPa·s. The mass density (318.15 K) was 1007.9 ± 0.4 kg/m3, the viscosity (323.15 K) was 14.32 ± 0.12 mPa·s and the surface tension liquid-gas (328.15 K) was 31.8 ± 0.2 mN/m. The viscosity (328.15 K) was 11.58 ± 0.12 mPa·s, the mass density (328.15 K) was 1001.3 ± 0.4 kg/m3 and the viscosity (333.15 K) was 9.39 ± 0.11 mPa·s. It also gave a viscosity (338.15 K) of 7.65 ± 0.11 mPa·s, a mass density (338.15 K) of 995.4 ± 0.4 kg/m3 and a viscosity (344.15 K) of 6.04 ± 0.11 mPa·s. For the same compound, the surface tension liquid-gas (348.15 K) was 30.2 ± 0.2 mN/m, the viscosity (348.15 K) was 5.22 ± 0.1 mPa·s and the mass density (348.15 K) was 988.8 ± 0.4 kg/m3. It also gave a viscosity (353.15 K) of 4.42 ± 0.1 mPa·s, a mass density (353.15 K) of 985.1 ± 0.4 kg/m3 and a viscosity (358.15 K) of 3.84 ± 0.1 mPa·s. It also gave a mass density (358.15 K) of 982.5 ± 0.5 kg/m3, a viscosity (363.15 K) of 3.38 ± 0.1 mPa·s and a mass density (363.15 K) of 979 ± 0.5 kg/m3. It also gave a surface tension liquid-gas (368.15 K) of 28.5 ± 0.2 mN/m, a viscosity (368.15 K) of 3 ± 0.1 mPa·s and a mass density (368.15 K) of 975.5 ± 0.5 kg/m3. For the same compound, the viscosity (373.15 K) was 2.62 ± 0.1 mPa·s, the surface tension liquid-gas (378.15 K) was 27.7 ± 0.2 mN/m and the viscosity (378.15 K) was 2.28 ± 0.1 mPa·s. It also gave a viscosity (383.15 K) of 1.9 ± 0.1 mPa·s, a mass density (383.15 K) of 965.4 ± 0.5 kg/m3 and a viscosity (388.15 K) of 1.48 ± 0.1 mPa·s. The viscosity (393.15 K) was 1.02 ± 0.1 mPa·s, the mass density (393.15 K) was 958.7 ± 0.5 kg/m3 and the surface tension liquid-gas (398.15 K) was 26.1 ± 0.2 mN/m. For the same compound, the mass density (403.15 K) was 951.4 ± 0.5 kg/m3, the surface tension liquid-gas (408.15 K) was 25.2 ± 0.2 mN/m and the “vapor or sublimation pressure” value (409.85 K) was 0.01 kPa. For the same compound, the mass density (413.15 K) was 944.3 ± 0.6 kg/m3, the surface tension liquid-gas (418.15 K) was 24.4 ± 0.2 mN/m and the mass density (423.15 K) was 937 ± 0.6 kg/m3. The surface tension liquid-gas (428.15 K) was 23.6 ± 0.2 mN/m, the mass density (433.15 K) was 928.9 ± 0.6 kg/m3 and the surface tension liquid-gas (438.15 K) was 22.7 ± 0.2 mN/m. For the same compound, the mass density (443.15 K) was 919.4 ± 0.6 kg/m3, the surface tension liquid-gas (448.15 K) was 21.9 ± 0.2 mN/m and the surface tension liquid-gas (458.15 K) was 21.1 ± 0.2 mN/m. For the same compound, the “vapor or sublimation pressure” value (462.55 K) was 2.68 ± 0.03 kPa, the surface tension liquid-gas (468.15 K) was 20.2 ± 0.2 mN/m and the “vapor or sublimation pressure” value (480.15 K) was 5.34 ± 0.03 kPa. The “vapor or sublimation pressure” value (486.15 K) was 6.66 ± 0.03 kPa, the “vapor or sublimation pressure” value (492.15 K) was 8.02 ± 0.03 kPa and the “vapor or sublimation pressure” value (500.15 K) was 10.72 ± 0.04 kPa. The “vapor or sublimation pressure” value (507.15 K) was 13.36 ± 0.04 kPa, the “vapor or sublimation pressure” value (513.15 K) was 16.05 ± 0.04 kPa and the “vapor or sublimation pressure” value (518.15 K) was 18.79 ± 0.05 kPa. The “vapor or sublimation pressure” value (522.15 K) was 21.34 ± 0.05 kPa, the “vapor or sublimation pressure” value (527.15 K) was 24.02 ± 0.05 kPa and the “vapor or sublimation pressure” value (530.15 K) was 26.71 ± 0.06 kPa. The “vapor or sublimation pressure” value (537.15 K) was 32.05 ± 0.06 kPa, the “vapor or sublimation pressure” value (543.15 K) was 37.42 ± 0.07 kPa and the “vapor or sublimation pressure” value (545.15 K) was 40.02 ± 0.08 kPa. The “vapor or sublimation pressure” value (550.15 K) was 45.37 ± 0.09 kPa, the “vapor or sublimation pressure” value (554.15 K) was 50.69 ± 0.1 kPa and the “vapor or sublimation pressure” value (556.15 K) was 53.36 ± 0.1 kPa. For the same compound, the “vapor or sublimation pressure” value (560.15 K) was 58.74 ± 0.11 kPa, the “vapor or sublimation pressure” value (564.15 K) was 64.02 ± 0.12 kPa and the “vapor or sublimation pressure” value (567.15 K) was 69.28 ± 0.13 kPa. For the same compound, the “vapor or sublimation pressure” value (570.15 K) was 74.63 ± 0.14 kPa, the “vapor or sublimation pressure” value (575.15 K) was 83.34 ± 0.15 kPa and the “vapor or sublimation pressure” value (582.15 K) was 101.02 ± 0.18 kPa.
